What was measured:
[1] = tested on: mice grafted with cancer cells; test: In-vivo mice study, tumor volume vs time
Text: FIG. 6 provides a graph of change in Mice tumor volume vs time involving different treatments. The black curve corresponds to a control untreated tumor, the gray curve corresponds to intratumoreal injection with placebo particles containing no drug, the green curve corresponds to intravenous injection with drug, the red curve corresponds to intratumoreal injection of free drug, and the blue curve corresponds to injection with drug-encapsulated hydrogel PRV311.
Here, the PRV311 composition included microparticles loaded with the anti-tumor cytokine IL-12. […] It is hypothesized that the injected PRV311's polymeric mesh causes microparticles containing PRV311 to be retained locally, increasing efficacy.

[2] = tested on: established colorectal (MC32a) and pancreatic (Panc02) tumors; settings: weekly i.t. injections; cited from earlier work
[3] = mouse, in vivo; cited from earlier work

IL-12: potent antitumor cytokine
tumor growth ([1]; intratumoral injection): merely delayed tumor growth
tumor growth ([1]; intravenous injection): no significant change in tumor growth rate
established tumors eradicated [2]: ≤ 10%
local IL-12 retention [3]: 1 to 2 days
